{"source": "patent US11702414B2", "about": "“Thiadiazole IRAK4 inhibitors” (Gilead Sciences, Inc., priority 2018, dated 2023)", "key": {"IRAK4 enzyme": {"target": "IRAK4 enzyme (Homo sapiens (Human), UniProt Q9NWZ3)", "sequence (Q9NWZ3 whole entry)": "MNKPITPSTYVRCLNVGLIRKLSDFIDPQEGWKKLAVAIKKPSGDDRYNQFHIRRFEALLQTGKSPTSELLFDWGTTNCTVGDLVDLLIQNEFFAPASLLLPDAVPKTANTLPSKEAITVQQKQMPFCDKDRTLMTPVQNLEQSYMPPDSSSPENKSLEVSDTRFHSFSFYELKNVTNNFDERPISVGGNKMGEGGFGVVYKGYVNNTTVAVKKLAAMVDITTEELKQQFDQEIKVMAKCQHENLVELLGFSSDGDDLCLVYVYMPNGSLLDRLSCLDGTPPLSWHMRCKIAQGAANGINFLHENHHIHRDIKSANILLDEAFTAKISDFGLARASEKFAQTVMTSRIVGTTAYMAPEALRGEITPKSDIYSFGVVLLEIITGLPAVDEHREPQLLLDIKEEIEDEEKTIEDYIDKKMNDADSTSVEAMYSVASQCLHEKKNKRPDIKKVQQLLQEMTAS", "experiment": "IRAK4 Biochemical Assay (TR-FRET, STK1 KinEASE)"}, "TNFα": {"system": "TNFα", "experiment": "IRAK4 Monocyte TNFα Cell Based Assay", "parameters": "species or system human", "conditions": "Homo sapiens, Monocyte, human monocytes; second part of Table 2 (compounds 33-343); unit inferred; read-out: EC50MONO TNF HTRF"}}, "data": [{"smiles": "CC(C)Nc1cc(-c2ccc3cc(C#N)cnn23)ncc1-c1nnc(N2CCC(O)(C(F)(F)F)CC2)s1", "note": "[Example 172, 7-(5-(5-(4-hydroxy-4-(trifluoromethyl)piperidin-1-yl)-1,3,4-thiadiazol-2-yl)-4-(isopropylamino)pyridin-2-yl)pyrrolo[1,2-b]pyridazine-3-carbonitrile]", "values": [{"measurement": "IC50", "setting": "IRAK4 enzyme", "value": 2.99, "unit": "nM"}, {"measurement": "EC50", "setting": "TNFα", "value": 34.4, "unit": "nM"}]}, {"smiles": "C[C@H](C#N)Nc1cc(-c2ccc3cc(C#N)cnn23)ncc1-c1nnc(N2CCC(C)(O)CC2)s1", "note": "[Example 180, (R)-7-(4-((1-cyanoethyl)amino)-5-(5-(4-hydroxy-4-methylpiperidin-1-yl)-1,3,4-thiadiazol-2-yl)pyridin-2-yl)pyrrolo[1,2-b]pyridazine-3-carbonitrile]", "values": [{"measurement": "IC50", "setting": "IRAK4 enzyme", "value": 0.4, "unit": "nM"}, {"measurement": "EC50", "setting": "TNFα", "value": 6.8, "unit": "nM"}]}, {"smiles": "CC1(O)CCN(c2nnc(-c3cnc(-c4ccc5cc(C#N)cnn45)cc3NC3(C)COC3)s2)CC1", "note": "[Example 181, 7-(5-(5-(4-hydroxy-4-methylpiperidin-1-yl)-1,3,4-thiadiazol-2-yl)-4-((3-methyloxetan-3-yl)amino)pyridin-2-yl)pyrrolo[1,2-b]pyridazine-3-carbonitrile]", "values": [{"measurement": "IC50", "setting": "IRAK4 enzyme", "value": 0.36, "unit": "nM"}, {"measurement": "EC50", "setting": "TNFα", "value": 18.4, "unit": "nM"}]}, {"smiles": "CC(C)Nc1cc(-c2ccc3cc(C#N)cnn23)ncc1-c1nnc(N2CC[C@@](C)(O)[C@@H](F)C2)s1", "note": "[Example 186, 7-(5-(5-((3S,4R)-3-fluoro-4-hydroxy-4-methylpiperidin-1-yl)-1,3,4-thiadiazol-2-yl)-4-(isopropylamino)pyridin-2-yl)pyrrolo[1,2-b]pyridazine-3-carbonitrile]", "values": [{"measurement": "IC50", "setting": "IRAK4 enzyme", "value": 0.95, "unit": "nM"}, {"measurement": "EC50", "setting": "TNFα", "value": 8.4, "unit": "nM"}]}, {"smiles": "CC(C)Nc1cc(-c2ccc3cc(C#N)cnn23)ncc1-c1nnc(N2CCC(O)(CF)CC2)s1", "note": "[Example 189, 7-(5-(5-(4-(fluoromethyl)-4-hydroxypiperidin-1-yl)-1,3,4-thiadiazol-2-yl)-4-(isopropylamino)pyridin-2-yl)pyrrolo[1,2-b]pyridazine-3-carbonitrile]", "values": [{"measurement": "IC50", "setting": "IRAK4 enzyme", "value": 1.02, "unit": "nM"}, {"measurement": "EC50", "setting": "TNFα", "value": 16.3, "unit": "nM"}]}, {"smiles": "CC(C)Nc1cc(-c2ccc3cc(C#N)cnn23)ncc1-c1nnc(C(=O)N2CC[C@@H](CO)C2)s1", "note": "[Example 216, (R)-7-(5-(5-(3-(hydroxymethyl)pyrrolidine-1-carbonyl)-1,3,4-thiadiazol-2-yl)-4-(isopropylamino)pyridin-2-yl)pyrrolo[1,2-b]pyridazine-3-carbonitrile]", "values": [{"measurement": "IC50", "setting": "IRAK4 enzyme", "value": 0.78, "unit": "nM"}, {"measurement": "EC50", "setting": "TNFα", "value": 18.1, "unit": "nM"}]}, {"smiles": "CC(=O)NC1CC2CC1CC2c1nnc(-c2cnc(-c3ccc4cc(C#N)cnn34)cc2NC(C)C)s1", "note": "(centres unmarked) [Example 285, N-(5-(5-(6-(3-cyanopyrrolo[1,2-b]pyridazin-7-yl)-4-(isopropylamino)pyridin-3-yl)-1,3,4-thiadiazol-2-yl)bicyclo[2.2.1]heptan-2-yl)acetamide]", "values": [{"measurement": "IC50", "setting": "IRAK4 enzyme", "value": 0.78, "unit": "nM"}, {"measurement": "EC50", "setting": "TNFα", "value": 68, "unit": "nM"}]}, {"smiles": "CC(C)Nc1cc(-c2ccc3cc(C#N)cnn23)ncc1-c1nnc(N2CCC(C)(O)CC2)s1", "note": "[Example 287, 7-(5-(5-(4-hydroxy-4-methylpiperidin-1-yl)-1,3,4-thiadiazol-2-yl)-4-(isopropylamino)pyridin-2-yl)pyrrolo[1,2-b]pyridazine-3-carbonitrile]", "values": [{"measurement": "IC50", "setting": "IRAK4 enzyme", "value": 0.86, "unit": "nM"}, {"measurement": "EC50", "setting": "TNFα", "value": 9.8, "unit": "nM"}]}, {"smiles": "CC(=O)N1C[C@@H]2C[C@H]1CN2c1nnc(-c2cnc(-c3ccc4cc(C#N)cnn34)cc2NC(C)C)s1", "note": "[Example 302, 7-(5-(5-((1S,4S)-5-acetyl-2,5-diazabicyclo[2.2.1]heptan-2-yl)-1,3,4-thiadiazol-2-yl)-4-(isopropylamino)pyridin-2-yl)pyrrolo[1,2-b]pyridazine-3-carbonitrile]", "values": [{"measurement": "IC50", "setting": "IRAK4 enzyme", "value": 0.59, "unit": "nM"}, {"measurement": "EC50", "setting": "TNFα", "value": 5.3, "unit": "nM"}]}, {"smiles": "CC(C)Nc1cc(-c2ccc3cc(C#N)cnn23)ncc1-c1nnc(N2CCN(C3COC3)CC2)s1", "note": "[Example 304, 7-(4-(isopropylamino)-5-(5-(4-(oxetan-3-yl)piperazin-1-yl)-1,3,4-thiadiazol-2-yl)pyridin-2-yl)pyrrolo[1,2-b]pyridazine-3-carbonitrile]", "values": [{"measurement": "IC50", "setting": "IRAK4 enzyme", "value": 0.54, "unit": "nM"}, {"measurement": "EC50", "setting": "TNFα", "value": 9.8, "unit": "nM"}]}]}
